Test results taken from patent US20210309645A1, “pH DEPENDENT PHOTOACOUSTIC COMPOUNDS AND APPLICATIONS THEREOF” (Wake Forest University, priority 2018, published 2021).

Experiments:
[1] = tested on: orthotopic pancreatic tumor; assay: MSOT imaging of compound accumulation in mice with orthotopic pancreatic tumor; format: in vivo; conditions: SCID mice, iv tail vein, 100 nM in PBS pH 7.4, 100 μl; after 2 h
Method: Preliminary evaluation of compound (Ia) accumulation within mice was conducted. A matrigel plug containing surgicel mesh and fibroblast was injected subcutaneously to stimulate non-malignant fibrotic tissue two weeks prior to orthotopic tumor implantation in 3 SCID mice. Mice were anesthesized using 1.5% isoflurane and a gas mixture of 0.9 L medical air and 0.1 L 02 to detect tissue hypoxia. Because areas of tissue hypoxia will also have acidic extracellular pH, tissue hypoxia served as an additional acidic extracellular pH (pHe) control. One week post tumor implantation mice were imaged using MSOT to obtain a baseline prior to iv tail vein injection of compound (Ia) at (100 nM in PBS pH 7.4) in 100 μl total volume.

[2] = Quantum yield and spectral properties in buffered solutions, by comparison with rhodamine; format: physicochemical; conditions: for ΦF (quantum yield): vs rhodamine
Method: The quantum yield of compound (Ia) under acidic (pH 6.0), neutral (7.0), and basic (pH 8.0) buffered solutions were calculated by comparison with rhodamine (ΦR=0.95 in ethanol), where ΦF is the quantum yield.

[3] = UV-Vis absorbance spectra in variable pH PBS buffer solutions; format: physicochemical; conditions: pH 7.4, 7.0, 6.8, 6.5
Method: Substantial differences were observed between pH 7.4 and pH 7.0 (B), pH 7.0 and 6.8 (C). A small additional peak was observed between pH 6.8 and 6.5 (D). This initial identification of the ability of compound (Ia) to modulate absorbance spectra was solely dependent upon variation in pH as changes in absorbance in various light conditions, various levels of 02, and various cell culture medium (with and without phenol red) (data not shown) were also tested.

[4] = Absorption spectra in the presence of ions and reactive cellular products at pH 7.4; format: physicochemical; conditions: Na+, K+, Ca2+, Fe2+, Mg2+, Zn2+, Fe3+ chloride salts, H2O2, GSH, cysteine
Method: Since compound (Ia) was designed to spectrally alter based upon H^+ protonation, compound (Ia) was also evaluated in the presence of de-ionized water, phosphate buffer saline, and/or other ions which are present in living organisms (Na^+, K^+, Ca^2+, Fe^2+, Mg^2+, Zn^2+, Fe^3+ and Fe^2+ as chloride salts), and other highly reactive cellular products (H2O2, glutathione (GSH), cysteine) at pH 7.4. […] With the establishment that modulation of spectral absorption corresponded to H^+ without influence of other ions, compound (Ia) was further evaluated as a potential optoacoustic agent.

[5] = in ethanol; cited from earlier work
[6] = pH 6.0 (acidic) buffered solution
[7] = pH 7.0 (neutral) buffered solution
[8] = pH 8.0 (basic) buffered solution

Row | Compound | accumulation detected by MSOT [1] | Absmax [2, 6] [nm] | Emmax [2, 6] [nm] | ΦF (quantum yield) [2, 6] | Absmax [2, 7] [nm] | Emmax [2, 7] [nm] | ΦF (quantum yield) [2, 7] | Absmax [2, 8] [nm] | Emmax [2, 8] [nm] | ΦF (quantum yield) [2, 8] | pH dependence of absorbance spectra (UV-Vis) [3] | change of absorption spectra in the presence of other ions and reactive cellular products [4] | ΦR (quantum yield of reference) [5]
1 | C[N+]1=C(/C=C/C2=C3Oc4cc(O)ccc4C=C3CCC2)C(C)(C)c2c1ccc1c2ccc2cc(Cl)ccc21 [compound (Ia)] | Pancreatic tumor specific accumulation | 652 | 694 | 0.18 | 704 | 745 | 0.22 | 765 | 810 | 0.23 | absorbance spectra modulation corresponding with variable pH PBS buffer solutions | did not significantly alter | –
2 | rhodamine | – | – | – | – | – | – | – | – | – | – | – | – | 0.95
